Results from patent US11168078B2, “Sulfoximine, sulfonimidamide, sulfondiimine and diimidosulfonamide compounds as inhibitors of indoleamine 2,3-dioxygenase” (Shanghai Fochon Pharmaceutical Co., Ltd., priority 2016, dated 2021).

target: T1, IDO (Homo sapiens, UniProt P14902); assay: IDO Cell-Based NEK Green Assay (NFK Green, N-formyl kynurenine level); details: Hela cells, 1 mM L-Tryptophan, 100 ng/mL recombinant human interferon-gamma, 2 days, NFK Green fluorescence
T1 construct: endogenous in cells; host or cells: HeLa cells stimulated with recombinant human interferon-gamma
T1 sequence (P14902 whole entry): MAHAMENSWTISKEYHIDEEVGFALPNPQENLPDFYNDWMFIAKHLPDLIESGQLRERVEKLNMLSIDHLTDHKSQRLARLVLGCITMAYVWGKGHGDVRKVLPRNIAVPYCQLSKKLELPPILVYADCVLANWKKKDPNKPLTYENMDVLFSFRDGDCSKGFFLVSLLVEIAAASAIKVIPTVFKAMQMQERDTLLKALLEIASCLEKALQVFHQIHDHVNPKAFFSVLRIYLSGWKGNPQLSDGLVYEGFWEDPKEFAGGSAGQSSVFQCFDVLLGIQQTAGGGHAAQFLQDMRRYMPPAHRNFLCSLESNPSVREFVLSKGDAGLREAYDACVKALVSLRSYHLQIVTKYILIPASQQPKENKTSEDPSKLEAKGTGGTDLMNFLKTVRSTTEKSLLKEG
Protocol: IDO Cell-Based NEK Green Assay
Materials: RPMI 1640 (phenol red free) (Invitrogen Cat. No. 11835030), Fetal Bovine Serum (Invitrogen Cat. No. 10099141), Penicillin-Streptomycin (Invitrogen Gibco Cat. No. 15140-122), Cellular assay kit (NTRC, Cat. No. NTRC-GSCell-1K), DMSO (Sigma, Cat. No. D2650), 384 wells_compound plate (Greiner, Cat. No. 781280), 384 wells_assay plate (Greiner, Cat. No. 781091)
The concentrations of test compounds varied from 5 μM to 0.76 nM with 3-fold dilution, 10 points, in duplicates.
Hela cells were seeded at 8,000 cells per well with RPMI/phenol red free media containing 10% FBS in a 384-well tissue culture plate. Mixture of compounds and 1 mM L-Tryptophan were added to cells; and then the recombinant human interferon-gamma was added at the final concentration of 100 ng/mL to activate IDO signaling. The cells were incubated for 2 days in 37° C. incubator with 5% CO2. After that, NFK Green was used to detect the N-formyl kynurenine level by following the commercial kit instruction. The fluorescent signal was measured by Envision plate Reader (excitation, 400/25; emission, 510/20). Curves are fit by XLFIT5 as % inhibition vs. log [compound concentration] using a 4 parameters logistic model 205.
Select compounds prepared as described above were assayed according to the biological procedures described herein.

Compound | IC50 [nM]
CN=S(=O)(CCCNc1nonc1/C(=N/O)Nc1ccc(F)c(Br)c1)NC (stereo not drawn) [Example 17, (Z)—N-(3-bromo-4-fluorophenyl)-4-((3-(N,N′-dimethylsulfamidimidoyl)propyl)amino)-N′-hydroxy-1,2,5-oxadiazole-3-carboximidamide] | 10.6
CN=S(=O)(CCCNc1nonc1/C(=N/O)Nc1ccc(F)c(Cl)c1)NC (stereo not drawn) [Example 18, (Z)—N-(3-chloro-4-fluorophenyl)-4-((3-(N,N′-dimethylsulfamidimidoyl)propyl)amino)-N′-hydroxy-1,2,5-oxadiazole-3-carboximidamide] | 23.2
CS(=N)(=N)CCNc1nonc1/C(=N/O)Nc1ccc(F)c(Br)c1 [Example 20, (Z)—N-(3-bromo-4-fluorophenyl)-4-({2-[diimino(methyl)-λ^6-sulfanyl]ethyl}amino)-N′-hydroxy-1,2,5-oxadiazole-3-carboximidamide] | 12.2
C#Cc1cc(N/C(=N\O)c2nonc2NCCNS(=N)(=O)CC)ccc1F (stereo not drawn) [Example 21, (Z)-4-((2-(ethylsulfonoamidimidamido)ethyl)amino)-N-(3-ethynyl-4-fluorophenyl)-N′-hydroxy-1,2,5-oxadiazole-3-carboximidamide] | 16.3
CN=S(C)(=O)NCCNc1nonc1/C(=N/O)Nc1ccc(F)c(Cl)c1 (stereo not drawn) [Example 22, (Z)-N-(3-chloro-4-fluorophenyl)-N′-hydroxy-4-((2-(N′-methylmethylsulfonoamidimidamido)ethyl)amino)-1,2,5-oxadiazole-3-carboximidamide] | 27.5
CCS(=O)(=NC)NCCNc1nonc1/C(=N/O)Nc1ccc(F)c(Cl)c1 (stereo not drawn) [Example 23, (Z)-N-(3-chloro-4-fluorophenyl)-N′-hydroxy-4-((2-(N′-methylethylsulfonoamidimidamido)ethyl)amino)-1,2,5-oxadiazole-3-carboximidamide] | 33.2
CCS(=N)(=O)NCCCNc1nonc1/C(=N/O)Nc1ccc(F)c(Br)c1 (stereo not drawn) [Example 24, (Z)-N-(3-bromo-4-fluorophenyl)-4-[(3-ethanesulfonoimidamidopropyl)amino]-N′-hydroxy-1,2,5-oxadiazole-3-carboximidamide] | 8.2
CCS(=N)(=O)NCCNc1nonc1/C(=N/O)Nc1ccc(F)c(Cl)c1 (stereo not drawn) [Example 25, (Z)-N-(3-chloro-4-fluorophenyl)-4-((2-(ethylsulfonoamidimidamido)ethyl)amino)-N′-hydroxy-1,2,5-oxadiazole-3-carboximidamide] | 17.5
CS(=N)(=O)NCCCNc1nonc1/C(=N/O)Nc1ccc(F)c(Cl)c1 (stereo not drawn) [Example 26, (Z)-N-(3-chloro-4-fluorophenyl)-N′-hydroxy-4-[(3-methanesulfonoimidamidopropyl)amino]-1,2,5-oxadiazole-3-carboximidamide] | 14
CCS(=N)(=O)NCCCNc1nonc1/C(=N/O)Nc1ccc(F)c(Cl)c1 (stereo not drawn) [Example 27, (Z)-N-(3-chloro-4-fluorophenyl)-4-[(3-ethanesulfonoimidamidopropyl)amino]-N′-hydroxy-1,2,5-oxadiazole-3-carboximidamide] | 16.5
C#Cc1cc(N/C(=N\O)c2nonc2NCCN=S(C)(C)=O)ccc1F [Example 29, (Z)-4-((2-((dimethyl(oxo)-λ^6-sulfanylidene)amino)ethyl)amino)-N-(3-ethynyl-4-fluoro-phenyl)-N′-hydroxy-1,2,5-oxadiazole-3-carboximidamide] | 26.5
CS(C)(=O)=NCCCNc1nonc1/C(=N/O)Nc1ccc(F)c(Br)c1 [Example 30, (Z)-N-(3-bromo-4-fluorophenyl)-4-((3-((dimethyl(oxo)-λ^6-sulfanylidene)amino)propyl)amino)-N′-hydroxy-1,2,5-oxadiazole-3-carboximidamide] | 63.6
CS(C)(=O)=NCCCNc1nonc1/C(=N/O)Nc1ccc(F)c(Cl)c1 [Example 31, (Z)-N-(3-chloro-4-fluorophenyl)-4-((3-((dimethyl(oxo)-λ^6-sulfanylidene)amino)propyl)amino)-N′-hydroxy-1,2,5-oxadiazole-3-carboximidamide] | 112
O=S1(=NCCCNc2nonc2/C(=N/O)Nc2ccc(F)c(Cl)c2)CCC1 [Example 32, (Z)-N-(3-chloro-4-fluorophenyl)-N′-hydroxy-4-((3-((1-oxido-1λ^6-thietan-1-ylidene)amino)propyl)amino)-1,2,5-oxadiazole-3-carboximidamide] | 64.4
CCS(=O)(=NC)NCCNc1nonc1/C(=N/O)Nc1ccc(F)c(Br)c1 (stereo not drawn) [Example 33, (Z)-N-(3-bromo-4-fluorophenyl)-N′-hydroxy-4-((2-(N′-methylethylsulfonoamidimidamido)ethyl)amino)-1,2,5-oxadiazole-3-carboximidamide] | 23.9
CCS(=N)(=N)CCNc1nonc1/C(=N/O)Nc1ccc(F)c(Br)c1 [Example 34, (Z)-N-(3-bromo-4-fluorophenyl)-4-{[2-(ethyldiimino-λ^6-sulfanyl)ethyl]amino}-N′-hydroxy-1,2,5-oxadiazole-3-carboximidamide] | 9.7
CS(=N)(=N)CCNc1nonc1/C(=N/O)Nc1ccc(F)c(Cl)c1 [Example 35, (Z)-N-(3-chloro-4-fluorophenyl)-4-({2-[diimino(methyl)-λ^6-sulfanyl]ethyl}amino)-N′-hydroxy-1,2,5-oxadiazole-3-carboximidamide] | 33.7
CS(=N)(=N)CCCNc1nonc1/C(=N/O)Nc1ccc(F)c(Br)c1 [Example 36, (Z)-N-(3-bromo-4-fluorophenyl)-4-({3-[diimino(methyl)-λ^6-sulfanyl]propyl}amino)-N′-hydroxy-1,2,5-oxadiazole-3-carboximidamide] | 46.7
CCS(=N)(=N)CCCNc1nonc1/C(=N/O)Nc1ccc(F)c(Br)c1 [Example 37, (Z)-N-(3-bromo-4-fluorophenyl)-4-{[3-(ethyldiimino-λ^6-sulfanyl)propyl]amino}-N′-hydroxy-1,2,5-oxadiazole-3-carboximidamide] | 20.5
CC(C)S(=N)(=N)CCNc1nonc1/C(=N/O)Nc1ccc(F)c(Br)c1 [Example 38, (Z)-N-(3-bromo-4-fluorophenyl)-4-({2-[diimino(propan-2-yl)-λ^6-sulfanyl]ethyl}amino)-N′-hydroxy-1,2,5-oxadiazole-3-carboximidamide] | 13.3
N=S(=N)(CCNc1nonc1/C(=N/O)Nc1ccc(F)c(Br)c1)C1CC1 [Example 39, (Z)-N-(3-bromo-4-fluorophenyl)-4-{[2-(cyclopropyldiimino-λ^6-sulfanyl)ethyl]amino}-N′-hydroxy-1,2,5-oxadiazole-3-carboximidamide] | 52.3
N=S(=N)(CCO)CCNc1nonc1/C(=N/O)Nc1ccc(F)c(Br)c1 [Example 40, (Z)-N-(3-bromo-4-fluorophenyl)-N′-hydroxy-4-({2-[(2-hydroxyethyl)diimino-λ^6-sulfanyl]ethyl}amino)-1,2,5-oxadiazole-3-carboximidamide] | 39.1
COCCS(=N)(=N)CCNc1nonc1/C(=N/O)Nc1ccc(F)c(Br)c1 [Example 41, (Z)-N-(3-bromo-4-fluorophenyl)-4-({2-[diimino(2-methoxyethyl)-λ^6-sulfanyl]ethyl}amino)-N′-hydroxy-1,2,5-oxadiazole-3-carboximidamide] | 20.9
CCS(=N)(=N)CCNc1nonc1/C(=N/O)Nc1ccc(F)c(C#N)c1 [Example 42, (Z)-N-(3-cyano-4-fluorophenyl)-4-{[2-(ethyldiimino-λ^6-sulfanyl)ethyl]amino}-N′-hydroxy-1,2,5-oxadiazole-3-carboximidamide] | 196
C#Cc1cc(N/C(=N\O)c2nonc2NCCS(C)(=N)=N)ccc1F [Example 43, (Z)-4-({2-[diimino(methyl)-λ^6-sulfanyl]ethyl}amino)-N-(3-ethynyl-4-fluorophenyl)-N′-hydroxy-1,2,5-oxadiazole-3-carboximidamide] | 238
C#Cc1cc(N/C(=N\O)c2nonc2NCCS(=N)(=N)CC)ccc1F [Example 44, (Z)-4-{[2-(ethyldiimino-λ^6-sulfanyl)ethyl]amino}-N-(3-ethynyl-4-fluorophenyl)-N′-hydroxy-1,2,5-oxadiazole-3-carboximidamide] | 73.5
(Z)—N-(3-ethynyl-4-fluorophenyl)-N′-hydroxy-4-((2-(methylsulfonoamidimidamido)ethyl)amino)-1,2,5-oxadiazole-3-carboximidamide [Example 19] | 13.3
